Tests used:
[1] = system: MCAO rat model; experiment: H&E histology of brain sections of MCAO rats; type: in vivo; settings: 5 mg/kg i.v., 48 h, Fig 6C
Experimental: (§1) The induction of apoptosis in the penumbra after MCAO results in brain damage, leading to the formation of infarcts or areas of tissue damage. To examine the impact of leptin-PEG-FBP on brain infraction, we conducted triphenyltetrazolium chloride (TTC) staining at 48 h post-treatment.
(§2) Figure 6 Improvement of MCAO-induced infarction and histopathological changes with leptin-PEG-FBP treatment. MCAO rats were systemically treated with indicated peptides (5 mg/kg, i.v.) at […]. (A) Brain slices stained with TTC after necropsy. Quantitative analysis of infarction is shown on the right. Data represent mean ± SD (n = 5 animals per group). (B) Images of Nissl-stained brain slices (left) and quantitative analysis of infarction volume on the right. (C) Representative images of hematoxylin and eosin (H&E) brain sections from normal or MCAO-subjected animals after treatment. Data were analyzed using Mann–Whitney U test. Data represent the mean ± SD (* […]; ** p < 0.01; ns: not-significant).
Rats were sacrificed and perfused with PBS. Brains were carefully removed, embedded in OCT compound (Sakura Finetek, Alphen aan den Rijn, The Netherlands), rapidly cryopreserved in frigid isopentane chilled with liquid nitrogen, and stored at −80 °C until the subsequent sectioning procedure. […]

[2] = system: hypoxic-N2a cells; experiment: FasL-induced apoptosis in hypoxic N2a cells, Annexin V-PE staining; type: cell-based, mouse; settings: hypoxic N2a cells treated with FasL, then peptide; for effect on Fas-mediated apoptosis / cell death compared to control: Fig 1B,C, three independent experiments
Experimental: Figure 1 The inhibitory effect of FBP or leptin-PEG-FBP (L-P-F) on FasL-induced apoptosis in hypoxic-N2a. (A) Schematic illustration of the L-P-F peptide synthesis. (B,C) The N2a cells were cultured in a hypoxic condition in the presence of membrane-bound soluble FasL (5 nM) for 6 h, as described in the Methods section. The cells were then treated with 300 μM of the indicated peptides for 6 h and examined for Annexin V-PE staining. (B) Representative histograms illustrate the percentage of apoptosis with the peptide treatments, depicting live cells (in black) and apoptotic cells (in red). (C) Bar graph represents the percentage of Annexin V positive cells with the peptide treatments. Normoxia describes cells cultured in normal oxygen conditions. Hypoxia describes cells cultured in hypoxic conditions. The bar graph indicates the average ± SD of three independent experiments. The data in (C) was analyzed using Mann–Whitney U test (* p < 0.05; ns: not-significant). TEXT PRINTED IN THE PICTURE: (B) Mock: Annexin V: 86.4 | (B) ctrl-FBP: Annexin V: 82.0 | (B) Leptin: Annexin V: 83.5 | (B) FBP: Annexin V: 54.0 | (B) L-P-F: Annexin V: 56.5 DOUBTS OF THE COPYIST ABOUT THIS PICTURE: Panel B: the gate numbers have no unit or measure printed beside them; 'Annexin V' comes from the axis label printed once at the edge of the panel. / Panel B, Mock: this is a control treatment, not a substance; it is included because a gate value is printed with it. / Small print in panel B, so these digits are not certain: Mock 86.4, ctrl-FBP 82.0, Leptin 83.5, FBP 54.0, L-P-F 56.5.
To evaluate the effect of leptin-PEG-FBP on Fas-mediated apoptosis, hypoxic Neuro2a mouse neuroblastoma (N2a) cells were treated with FasL ([…]), followed by a treatment with the peptides indicated in Figure 1B.
Neuro2a mouse neuroblastoma cells (N2a) were obtained from ATCC (Rockville, MD) and cultured in Dulbecco’s modified Eagle’s medium (DMEM, Gibco) containing 10% fetal bovine serum, penicillin (100 IU/mL), and streptomycin (100 μg/mL). To mimic the in vitro ischemia/reperfusion environment, N2a cells were maintained in a hypoxic condition (94% N2, 5% CO2, 1% O2, 37 °C) in oxygen glucose deprivation media (OGD, Life Technologies, Carlsbad, CA, USA) for 24 h. The cells were then reoxygenated in DMEM supplemented with 10% FBS (5% CO2, 20% O2, 37 °C) for another 24 h and cultured in Dulbecco’s modified Eagle’s medium (DMEM) (Gibco) containing high glucose, supplemented with 10% calf serum and 1% penicillin-streptomycin. To analyze the functional effects of leptin-PEG-FBP, normoxia- and hypoxia-induced N2a cells were seeded in a six-well plate at 2 × 10^5/well with serum-free DMEM and treated with leptin-PEG-FBP at 1 mM for 6 h followed by exposure to a soluble Fas ligand (5 nM). […]

[3] = system: MCAO rat model; experiment: Nissl staining, infarction volume in MCAO rats; type: in vivo; settings: 5 mg/kg i.v., 48 h, PBS group around 45%, Fig 6B
Experimental: as §1, §2
Infarcted brain volume was analyzed using Nissl staining. The OCT-embedded brain samples for cryosection were fixed using 4% PFA at room temperature and subjected to 0.1% crystal violet solution following standard protocol. The stained sections were cover-slipped and blindly pictured using full-screening scanner. The infarcted volume was calculated using Image J software version 1.54d.

[4] = mouse, in vivo, iv, 2.5 mg/kg
Experimental: To confirm the specificity of leptin-mediated FBP delivery to the brain, we systemically administered Alexa^647-conjugated leptin alone, PEG-FBP, and leptin-PEG-FBP in leptin receptor-deficient db/db mice subjected to photothrombosis (Figure 3A).
Wildtype and leptin receptor-deficient (db/db) mice were subjected to photothrombotic stroke, followed by administration of the indicated peptides (2.5 mg/kg Alexa^647-labelled peptides, i.v.). Organs were collected at 12 h post-delivery and imaged on Kodak imaging station. (A,B) Representative images and quantification of fluorescence intensities after necropsy. Control mice were inoculated with PBS. Fluorescence intensities measured in arbitrary pixel values were normalized to fluorescence intensities in the PBS-treated group. The data represent mean ± SD (n = 5 per group). The data in (B) were analyzed using Mann–Whitney U test (* p < 0.05; ** p < 0.01).
(§3) For bio-distribution studies, Alexa^647-conjugated peptides were intravenously (IV) administered at 2.5 mg/kg. […] Fluorescence was analyzed at designated time points. After 12 h inoculation, fluorescence was measured in the brain, lung, liver, spleen, and kidney using image station (Kodak, Stamford, CT, USA).

[5] = rat, in vivo, iv
Experimental: Figure S2. Leptin peptide-mediated brain delivery in rats. Biodistribution (left panel)
of A647-conjugated peptides delivered intravenous (n=3) in normal rats. Brain, lung,
liver, spleen and kidney were examined 24 hr post- inoculation. Rats were treated with
RV -M AT , the control peptide and the leptin peptide. Cumulative data (right panel)
show relative fluorescence intensities measured in arbitrary pixel values for examined
tissues. The measurements are compared to the n ormal groupand are based on three
(1 picture or pasted object on this page, not shown here)

[6] = rat, in vivo
Experimental: To explore the feasibility of ischemic-specific FBP delivery, we administered Alexa^647-conjugated peptides to a rat middle cerebral artery occlusion (MCAO) ischemic stroke model. The peptides were delivered via the intravenous route (2.5 mg/kg) and the brain and peripheral organs were examined 24 h post-inoculation. […] Next, we conducted an in-depth analysis to validate the localization through confocal microscopy.
Rats underwent middle cerebral artery occlusion, followed by the administration of the indicated Alexa^647-labelled peptides (2.5 mg/kg, i.v.). Organs were harvested 24 h post-inoculation and imaged on Kodak imaging station. […] Control mice were inoculated with PBS.
Acute cerebral ischemia was produced using a 1 h occlusion of the right middle cerebral artery (MCAO) in Sprague–Dawley rats weighing 280–320 g (Orient Bio, Seoul, Republic of Korea), as previously described [76]. […]
as §3

[7] = system: MCAO rat model; experiment: TUNEL assay of brain sections of MCAO rats; type: in vivo; settings: 48 h post-MCAO
Experimental: Ischemic stroke conditions in rat MCAO models lead to brain damage primarily through apoptosis. To assess the therapeutic effects of leptin-PEG-FBP on Fas-mediated apoptosis, we administrated 5 mg/kg of FBP systemically at 3 h and 6 h post-MCAO. At 48 h post-MCAO, we conducted necropsy to estimate the protein levels of Fas and cleaved caspase-3 in the brain samples. Ischemic stroke induced an elevated level of Fas and cleaved caspase-3, similar to the PBS-treated MCAO rats. […] Approximately 52% of cells were TUNEL-positive in the PBS-treated group, 55% in the PEG-FBP, and 47% in the leptin-treated group (Figure 5B). […]
Figure 5 Leptin-PEG-FBP attenuates apoptosis in the MCAO rat model. […] (A) Representative Western blots and quantification of protein expression for Fas and cleaved caspase-3 in the brain of […] at 48 h post-MCAO. […] (B) Representative microscopy images of TUNEL-stained brain sections (red) and quantification of TUNEL-positive cells in the ischemic region of MCAO after necropsy. (C) Representative microscopy images of cleaved caspase-3-stained brain sections (green) and quantification of positive cells in the ischemic region of MCAO after necropsy. […] Data represent mean ± SD (n = 3 animals per group) and were analyzed using Mann–Whitney U test. […]

[8] = system: MCAO rat model; experiment: TTC staining, infarction in MCAO rats; type: in vivo; settings: 5 mg/kg i.v., 48 h post-MCAO, n = 5, PBS group 37%, Fig 6A
Experimental: as §1, §2
Pathology in brain tissues was analyzed by staining 2 mm brain slices in 2% 2,3,5-tryphenyltetrazolium chloride (TTC, Sigma Aldrich, St. Louis, MO, USA) for 15 min at 37 °C. The infarcted volume was calculated after fixation using Image J software version 1.54d, as described.

[9] = system: Jurkat cells; experiment: FasL-mediated apoptosis in Jurkat cells, Annexin V staining (effect of PEG size); type: cell-based; settings: membrane-bound soluble FasL 20 ng/ml, 3 hr, peptides 300 µM, FasL alone approximately 40% apoptosis, three independent experiments, Fig S1
Text: In a prior study, we observed that the Fas-blocking peptide (FBP) effectively disrupted Fas–FasL interactions, thereby inhibiting Fas-mediated apoptosis both in vitro and in vivo when delivered intranasally. In this study, we explored the impact of FBP through the clinically relevant systemic route of delivery. To conjugate FBP with leptin, a brain-targeting peptide that effectively penetrates the BBB, we employed polyethylene glycol (PEG) as a linker. We initially evaluated the toxicity of PEG of various sizes in Jurkat cells. The treatment of Jurkat cells with membrane-bound FasL induced approximately 40% apoptosis compared to non-FasL (normal) cells. […] Based on our findings, we conjugated PEG-2K to FBP (PEG-FBP) and then linked it with the leptin peptide. […] (Figure S2). The conjugation schematic is illustrated in Figure 1A.
Figure S1. Effect of PEGylation length on apoptosis inhibition by FBP peptides. ( A) Apoptosis in Jurkat cells was assessed 3 hr post- treatment with membrane-bound soluble FasL (20 ng/ml), with and without peptides at a concentration of 300 µM using Annexin V staining. (B-C) Bar graphs illustrating the percentage of cells in early (B) and late (C) apoptosis. The compar ison includes non- treated, ctrl- FBP, FBP, and various PEGylated FBP (1K, 2K, 3.4K, 5K, 10K) after FasL treatment in Jurkat cells. […]

YQQVLTSLPSQNVLQIANDLENLRDLLHLLGGGC [leptin, 30 amino acid-long leptin-derived brain-targeting peptide with GGGC tail]
tissue damage in right hemisphere, H&E staining [1]: significant damage to the tissue morphology | effect on Fas-mediated apoptosis / cell death compared to control [2]: did not demonstrate a reduction | infarction volume, Nissl staining [3]: ~45% | brain delivery in leptin receptor-deficient db/db mice [4]: did not bind to the brain | delivery to the brain compared to negative control peptide RV-MAT [5]: successful delivery to the brain | Alexa647-positive cells in brain sections, confocal microscopy [6]: strong Alexa^647 positive cells | TUNEL-positive cells in the ischemic region ([7]; 5 mg/kg i.v. at 3 h and 6 h post-MCAO, confocal, n = 3, PBS group 52%, Fig 5B): ~47% | change in TUNEL and cleaved caspase-3 positive cells ([7]; 5 mg/kg i.v., Fig 5B,C): no significant changes | infarction volume, TTC staining [8]: 32%

YCDEHFCY [FBP]
decrease in Annexin V positivity upon exposure to FasL ([2]; Fig 1B): 40% | effect on Fas-mediated apoptosis / cell death compared to control [2]: significantly reduced cell death | effect on FasL-mediated apoptosis in Jurkat cells [9]: significantly reduced FasL-mediated apoptosis

YCNSTVCY [ctrl-FBP, control FBP peptide YCNSTVCY]
effect on Fas-mediated apoptosis / cell death compared to control [2]: did not demonstrate a reduction

From publication PMC10780202, “Systemic Treatment with Fas-Blocking Peptide Attenuates Apoptosis in Brain Ischemia” (International Journal of Molecular Sciences, 2024)
